In test [1] the target is Tyrosine-protein kinase ABL1 (Homo sapiens, UniProt P00519). In words: (§1) Selectivity interaction (Kinase panel (Z-LYTE Assay)) EUB0001632a ABL1. The following applies: at 10 µM.
The subject of test [2] is Tyrosine-protein kinase ABL1 (Homo sapiens), P00519 [E255K]. The description is as §1. Conditions: at 10 µM.
The test system of test [3] is Tyrosine-protein kinase ABL1 (Homo sapiens), P00519 [Y253F]. Described as §1. Conditions: at 10 µM.
Test [4] has as its system Tyrosine-protein kinase ABL1 (Homo sapiens), P00519 [G250E]. The test is described as §1. The following applies: at 10 µM.
Test [5] has as its system Tyrosine-protein kinase ABL1 (Homo sapiens), P00519 [T315I]. The test is described as §1. Conditions: at 10 µM.
For test [6], the system named is Tyrosine-protein kinase ABL1 (Homo sapiens), P00519 [F317I]. The description is as §1. The following applies: at 10 µM.
The target of test [7] is T1, Beta-adrenergic receptor kinase 1 (Homo sapiens) (UniProt P25098).
T1 sequence (whole entry): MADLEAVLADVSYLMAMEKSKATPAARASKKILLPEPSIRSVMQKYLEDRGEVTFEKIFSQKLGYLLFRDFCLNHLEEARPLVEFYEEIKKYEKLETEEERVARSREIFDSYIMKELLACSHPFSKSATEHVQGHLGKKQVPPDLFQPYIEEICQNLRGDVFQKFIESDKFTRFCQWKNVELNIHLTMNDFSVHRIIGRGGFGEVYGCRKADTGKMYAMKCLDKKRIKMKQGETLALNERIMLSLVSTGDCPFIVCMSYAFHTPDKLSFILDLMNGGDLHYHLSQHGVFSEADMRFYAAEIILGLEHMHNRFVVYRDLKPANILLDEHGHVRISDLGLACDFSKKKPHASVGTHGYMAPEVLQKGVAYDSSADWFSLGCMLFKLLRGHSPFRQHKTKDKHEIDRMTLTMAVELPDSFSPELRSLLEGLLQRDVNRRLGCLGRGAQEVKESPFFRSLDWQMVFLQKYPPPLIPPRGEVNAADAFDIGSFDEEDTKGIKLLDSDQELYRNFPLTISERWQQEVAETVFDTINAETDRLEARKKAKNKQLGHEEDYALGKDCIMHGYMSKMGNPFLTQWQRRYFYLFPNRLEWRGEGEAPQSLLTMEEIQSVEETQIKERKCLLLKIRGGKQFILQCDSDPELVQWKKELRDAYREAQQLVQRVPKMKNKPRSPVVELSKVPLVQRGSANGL
In words: Selectivity interaction (Kinase panel (KiNativ target engagement assay in Jurkat cells)) EUB0001635a ADRBK1. Format: cell-based. The following applies: Selectivity number of off-targets 0.0, Selectivity number of targets 233.0, Source Knowledge https://www.sciencedirect.com/science/article/pii/S2451945619300674?via%3Dihub, at 1 µM.

Test [8] addresses T2, Serine/threonine-protein kinase LATS2 (Homo sapiens) (UniProt Q9NRM7).
T2 sequence (whole entry): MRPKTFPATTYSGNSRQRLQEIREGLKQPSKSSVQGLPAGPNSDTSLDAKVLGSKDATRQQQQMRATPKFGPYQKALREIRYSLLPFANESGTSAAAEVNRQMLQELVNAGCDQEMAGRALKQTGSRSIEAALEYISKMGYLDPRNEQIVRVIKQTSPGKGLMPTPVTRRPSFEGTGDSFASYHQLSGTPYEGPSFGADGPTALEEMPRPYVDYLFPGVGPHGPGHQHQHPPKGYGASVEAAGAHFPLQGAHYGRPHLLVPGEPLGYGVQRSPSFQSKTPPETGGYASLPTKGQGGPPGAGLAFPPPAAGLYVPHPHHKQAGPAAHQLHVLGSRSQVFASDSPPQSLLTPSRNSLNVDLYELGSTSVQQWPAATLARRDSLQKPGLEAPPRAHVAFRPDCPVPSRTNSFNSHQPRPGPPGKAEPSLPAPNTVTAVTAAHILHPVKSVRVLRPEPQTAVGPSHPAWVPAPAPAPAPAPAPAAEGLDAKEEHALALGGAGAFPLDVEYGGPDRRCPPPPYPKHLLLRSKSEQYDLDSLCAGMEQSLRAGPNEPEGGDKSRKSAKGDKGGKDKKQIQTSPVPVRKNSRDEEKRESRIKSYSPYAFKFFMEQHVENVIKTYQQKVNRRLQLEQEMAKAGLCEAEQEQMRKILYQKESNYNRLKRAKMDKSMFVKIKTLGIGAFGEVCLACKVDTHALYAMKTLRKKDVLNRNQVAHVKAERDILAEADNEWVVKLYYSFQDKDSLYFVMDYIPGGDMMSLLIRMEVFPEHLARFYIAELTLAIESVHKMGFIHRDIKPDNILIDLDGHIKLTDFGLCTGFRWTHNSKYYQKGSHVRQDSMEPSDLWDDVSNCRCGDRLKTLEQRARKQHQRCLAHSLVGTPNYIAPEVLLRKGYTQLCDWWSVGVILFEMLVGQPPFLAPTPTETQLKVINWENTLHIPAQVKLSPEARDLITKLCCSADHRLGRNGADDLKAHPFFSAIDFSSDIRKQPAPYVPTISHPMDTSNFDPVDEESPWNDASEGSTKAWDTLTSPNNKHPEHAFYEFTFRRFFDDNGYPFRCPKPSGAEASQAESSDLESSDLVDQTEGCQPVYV
In words: Selectivity interaction (Kinase panel (KiNativ target engagement assay in Jurkat cells)) EUB0001635a LATS2. The test is classed as cell-based. The following applies: Selectivity number of off-targets 0.0, Selectivity number of targets 233.0, Source Knowledge https://www.sciencedirect.com/science/article/pii/S2451945619300674?via%3Dihub, at 1 µM.

The target in test [9] is Mast/stem cell growth factor receptor Kit (Homo sapiens, UniProt P10721). In words: Selectivity interaction (KinomeScan (DiscoverX)) EUB0000607a KIT. Conditions: at 10 µM.
Mast/stem cell growth factor receptor Kit, sequence (P10721 whole entry): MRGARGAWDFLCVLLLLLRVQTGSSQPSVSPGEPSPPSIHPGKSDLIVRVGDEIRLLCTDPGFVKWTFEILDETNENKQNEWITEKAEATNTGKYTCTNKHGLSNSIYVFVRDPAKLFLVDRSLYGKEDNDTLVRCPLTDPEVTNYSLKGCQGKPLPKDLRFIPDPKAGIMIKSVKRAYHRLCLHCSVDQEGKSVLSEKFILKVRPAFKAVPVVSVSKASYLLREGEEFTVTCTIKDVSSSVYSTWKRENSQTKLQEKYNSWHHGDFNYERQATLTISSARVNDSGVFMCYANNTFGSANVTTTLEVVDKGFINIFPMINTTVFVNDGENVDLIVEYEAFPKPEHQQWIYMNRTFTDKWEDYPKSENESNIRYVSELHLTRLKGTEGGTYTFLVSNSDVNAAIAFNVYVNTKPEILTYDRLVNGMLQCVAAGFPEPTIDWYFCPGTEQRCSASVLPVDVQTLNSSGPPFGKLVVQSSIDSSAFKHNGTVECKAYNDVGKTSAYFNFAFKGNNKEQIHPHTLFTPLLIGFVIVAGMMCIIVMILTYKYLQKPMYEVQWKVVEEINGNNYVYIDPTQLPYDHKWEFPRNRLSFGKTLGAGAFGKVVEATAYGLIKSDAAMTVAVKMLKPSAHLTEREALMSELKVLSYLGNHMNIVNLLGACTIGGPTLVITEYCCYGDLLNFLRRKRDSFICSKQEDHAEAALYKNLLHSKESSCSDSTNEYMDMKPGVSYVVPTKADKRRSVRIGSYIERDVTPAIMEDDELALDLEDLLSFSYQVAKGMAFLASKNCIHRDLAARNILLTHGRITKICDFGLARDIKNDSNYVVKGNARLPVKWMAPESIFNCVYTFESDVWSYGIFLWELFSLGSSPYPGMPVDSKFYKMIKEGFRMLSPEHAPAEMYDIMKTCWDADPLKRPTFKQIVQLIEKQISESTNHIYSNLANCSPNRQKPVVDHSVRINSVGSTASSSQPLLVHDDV
The target of test [10] is STE20-like serine/threonine-protein kinase (Homo sapiens, UniProt Q9H2G2). The following applies: at 10 µM.
STE20-like serine/threonine-protein kinase, sequence (Q9H2G2 whole entry, looked up): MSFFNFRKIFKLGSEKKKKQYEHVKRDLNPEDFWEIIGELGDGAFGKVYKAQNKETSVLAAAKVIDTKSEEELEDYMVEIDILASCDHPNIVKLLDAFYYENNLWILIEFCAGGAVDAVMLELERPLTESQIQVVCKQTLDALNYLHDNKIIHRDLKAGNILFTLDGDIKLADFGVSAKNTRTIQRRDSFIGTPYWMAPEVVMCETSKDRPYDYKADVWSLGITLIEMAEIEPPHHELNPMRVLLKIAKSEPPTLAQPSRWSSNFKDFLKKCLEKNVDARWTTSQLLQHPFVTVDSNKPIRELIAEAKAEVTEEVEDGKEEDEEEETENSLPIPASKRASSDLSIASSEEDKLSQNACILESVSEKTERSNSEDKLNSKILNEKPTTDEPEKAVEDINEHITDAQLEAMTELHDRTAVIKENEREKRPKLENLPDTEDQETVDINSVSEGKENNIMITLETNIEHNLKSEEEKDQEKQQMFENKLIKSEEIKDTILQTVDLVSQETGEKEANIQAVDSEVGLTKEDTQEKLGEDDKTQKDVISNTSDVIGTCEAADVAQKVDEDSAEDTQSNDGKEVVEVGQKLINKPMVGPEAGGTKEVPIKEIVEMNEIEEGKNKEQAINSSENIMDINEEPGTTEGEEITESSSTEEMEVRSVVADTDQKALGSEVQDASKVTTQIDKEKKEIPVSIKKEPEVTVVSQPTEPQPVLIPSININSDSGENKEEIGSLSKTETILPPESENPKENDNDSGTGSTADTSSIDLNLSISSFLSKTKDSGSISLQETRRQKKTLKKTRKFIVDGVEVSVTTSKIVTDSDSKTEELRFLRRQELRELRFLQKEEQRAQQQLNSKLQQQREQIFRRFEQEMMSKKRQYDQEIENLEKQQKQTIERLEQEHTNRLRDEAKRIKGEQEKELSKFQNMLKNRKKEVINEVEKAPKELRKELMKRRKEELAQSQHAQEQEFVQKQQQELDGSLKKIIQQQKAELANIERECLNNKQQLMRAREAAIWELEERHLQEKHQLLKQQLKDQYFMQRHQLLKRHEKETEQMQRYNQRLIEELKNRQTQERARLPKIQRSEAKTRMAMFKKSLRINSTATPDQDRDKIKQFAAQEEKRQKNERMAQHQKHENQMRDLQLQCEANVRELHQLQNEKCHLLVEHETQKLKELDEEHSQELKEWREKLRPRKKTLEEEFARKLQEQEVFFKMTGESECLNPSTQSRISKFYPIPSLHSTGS
The target in test [11] is Serine/threonine-protein kinase PAK 1 (Homo sapiens) (UniProt Q13153). Conditions: at 10 µM.
Serine/threonine-protein kinase PAK 1 (Homo sapiens), sequence (Q13153 whole entry): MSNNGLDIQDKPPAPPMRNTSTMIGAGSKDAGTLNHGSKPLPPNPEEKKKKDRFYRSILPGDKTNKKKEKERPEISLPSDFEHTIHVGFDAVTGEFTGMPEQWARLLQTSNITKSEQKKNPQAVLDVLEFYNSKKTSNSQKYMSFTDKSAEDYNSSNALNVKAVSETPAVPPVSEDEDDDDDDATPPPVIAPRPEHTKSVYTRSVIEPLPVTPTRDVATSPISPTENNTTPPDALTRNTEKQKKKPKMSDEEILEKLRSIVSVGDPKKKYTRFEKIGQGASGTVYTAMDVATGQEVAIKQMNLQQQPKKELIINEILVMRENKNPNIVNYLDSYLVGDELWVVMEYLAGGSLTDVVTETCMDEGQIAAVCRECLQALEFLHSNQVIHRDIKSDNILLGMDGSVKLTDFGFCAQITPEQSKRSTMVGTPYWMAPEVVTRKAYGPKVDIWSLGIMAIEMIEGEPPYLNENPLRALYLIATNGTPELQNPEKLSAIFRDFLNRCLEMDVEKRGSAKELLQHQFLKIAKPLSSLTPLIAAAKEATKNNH
In test [12] the target is Delta-type opioid receptor (Homo sapiens, UniProt P41143). In words: Selectivity interaction (GPCR panel (PDSP screen)) EUB0001079a OPRD1. Conditions: at 10 µM.
Delta-type opioid receptor, sequence (P41143 whole entry): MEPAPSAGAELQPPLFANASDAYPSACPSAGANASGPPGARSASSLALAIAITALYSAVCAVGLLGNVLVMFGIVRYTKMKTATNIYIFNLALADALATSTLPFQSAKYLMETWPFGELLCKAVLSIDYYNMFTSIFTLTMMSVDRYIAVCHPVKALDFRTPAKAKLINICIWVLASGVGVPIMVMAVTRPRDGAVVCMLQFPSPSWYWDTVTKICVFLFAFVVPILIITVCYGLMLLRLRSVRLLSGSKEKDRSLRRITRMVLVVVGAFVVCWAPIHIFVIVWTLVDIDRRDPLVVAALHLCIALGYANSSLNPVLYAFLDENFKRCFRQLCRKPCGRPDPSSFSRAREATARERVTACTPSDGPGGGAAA
For test [13], the target named is Histamine H4 receptor (Homo sapiens) (UniProt Q9H3N8). In words: Selectivity interaction (GPCR panel (PDSP screen)) EUB0001079a HRH4. The following applies: at 10 µM.
Histamine H4 receptor (Homo sapiens), sequence (Q9H3N8 whole entry): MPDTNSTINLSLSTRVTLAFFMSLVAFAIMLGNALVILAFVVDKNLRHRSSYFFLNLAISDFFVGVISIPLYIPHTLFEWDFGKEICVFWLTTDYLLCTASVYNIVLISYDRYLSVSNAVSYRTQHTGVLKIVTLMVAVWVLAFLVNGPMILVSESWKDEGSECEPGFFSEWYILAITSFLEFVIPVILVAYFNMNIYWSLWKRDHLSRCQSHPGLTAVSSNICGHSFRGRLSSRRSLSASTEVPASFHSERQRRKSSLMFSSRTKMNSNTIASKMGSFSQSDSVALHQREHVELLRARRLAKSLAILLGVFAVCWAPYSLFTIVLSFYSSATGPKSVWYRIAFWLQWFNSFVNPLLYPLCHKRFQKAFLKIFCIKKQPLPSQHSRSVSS
In test [14] the target is Ribosomal protein S6 kinase alpha-1 (Homo sapiens, UniProt Q15418). In words: Selectivity interaction (KinomeScan (DiscoverX)) EUB0001049a RPS6KA1. The following applies: at 1 µM.
Ribosomal protein S6 kinase alpha-1, sequence (Q15418 whole entry): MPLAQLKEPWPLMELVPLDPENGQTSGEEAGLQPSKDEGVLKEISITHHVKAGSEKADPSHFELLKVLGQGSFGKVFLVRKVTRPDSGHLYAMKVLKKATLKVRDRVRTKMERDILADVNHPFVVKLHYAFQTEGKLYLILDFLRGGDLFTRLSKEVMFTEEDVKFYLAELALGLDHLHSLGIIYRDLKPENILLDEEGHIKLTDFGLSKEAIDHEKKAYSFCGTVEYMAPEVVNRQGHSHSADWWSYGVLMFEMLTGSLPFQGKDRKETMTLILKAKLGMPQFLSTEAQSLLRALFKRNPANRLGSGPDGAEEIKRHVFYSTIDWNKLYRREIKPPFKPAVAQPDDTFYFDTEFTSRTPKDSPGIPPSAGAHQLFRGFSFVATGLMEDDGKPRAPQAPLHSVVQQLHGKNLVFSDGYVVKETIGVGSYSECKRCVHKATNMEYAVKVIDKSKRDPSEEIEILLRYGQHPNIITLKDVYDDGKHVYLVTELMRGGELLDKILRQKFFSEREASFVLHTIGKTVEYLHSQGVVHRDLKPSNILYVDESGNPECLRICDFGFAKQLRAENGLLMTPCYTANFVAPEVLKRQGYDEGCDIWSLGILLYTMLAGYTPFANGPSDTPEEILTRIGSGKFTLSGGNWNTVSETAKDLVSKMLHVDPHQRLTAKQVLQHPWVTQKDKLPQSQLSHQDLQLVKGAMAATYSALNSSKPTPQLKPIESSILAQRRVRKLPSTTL
In test [15] the target is Dual specificity protein kinase CLK2 (Homo sapiens, UniProt P49760). In words: Selectivity interaction (KinomeScan (DiscoverX)) EUB0000595a CLK2. Conditions: at 10 µM.
Dual specificity protein kinase CLK2, sequence (P49760 whole entry, looked up): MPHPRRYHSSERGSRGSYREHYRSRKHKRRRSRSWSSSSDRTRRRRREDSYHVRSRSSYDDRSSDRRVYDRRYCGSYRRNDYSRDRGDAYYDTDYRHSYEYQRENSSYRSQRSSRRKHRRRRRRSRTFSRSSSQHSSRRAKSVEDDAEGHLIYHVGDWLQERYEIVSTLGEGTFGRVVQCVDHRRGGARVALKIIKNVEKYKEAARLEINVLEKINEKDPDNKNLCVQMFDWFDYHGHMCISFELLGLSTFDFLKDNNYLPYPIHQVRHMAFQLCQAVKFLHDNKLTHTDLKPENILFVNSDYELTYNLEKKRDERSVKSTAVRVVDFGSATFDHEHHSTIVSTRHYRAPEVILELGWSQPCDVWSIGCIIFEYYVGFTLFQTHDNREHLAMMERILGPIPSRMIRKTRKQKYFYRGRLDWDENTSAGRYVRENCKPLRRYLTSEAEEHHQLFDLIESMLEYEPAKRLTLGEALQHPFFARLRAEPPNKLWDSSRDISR

`Cn1cc(-n2cnc3c(NCc4nc5cc(Cl)c(Cl)cc5[nH]4)nc(N4CCOCC4)nc32)cn1`: the % of control is -6.52% in test [1]; -3.74% in [2]; 2.36% in test [3]; 2.49% in [4]; -2.31% in test [5]; 1.78% in test [6].
With `C=CC(=O)Nc1ccc(C(=O)Nc2[nH]nc3c2CN(C(=O)N[C@H](CN(C)C)c2ccccc2)C3(C)C)cc1`, the % of engagement in test [7] was -2.6%; in test [8], -12.8%.
For the compound `CNC(=O)Nc1ccc(-c2nc(N3CC4CCC(C3)O4)c3cnn(C4CCC5(CC4)OCCO5)c3n2)cc1`, the % of control in test [9] came out at 93%.
`Cc1cc([C@@H](C)Nc2ccccc2C(=O)O)c2nc(N3CCOCC3)cc(=O)n2c1` [AZD-6482]: the % of control in [10] and in test [11] was 100% in each case.
Consider `Nc1cnc(N2CCc3cc(S(=O)(=O)Nc4c(F)cc(Cl)cc4F)cc(N4CCCC4=O)c32)nc1` [TP-020n], for which the % of inhibition in test [12] was -1.24%; in test [13], -0.37%.
For `COc1cc(Nc2nc(C)cc(-c3cnn4nc(OC)ccc34)n2)cc(C(F)(F)F)c1`, the % of control in test [14] was 100%.
Take `COCC(=O)NC/C=C/c1ccc2ncnc(Nc3ccc(Oc4ccc(C)nc4)c(C)c3)c2c1` [CP-724714]: the % of control in test [15] was determined as 75%.
